Assay results published in patent publication US10092575B2, “Substituted thiophene- and furan-fused azolopyrimidine-5-(6H)-one compounds” (DART NEUROSCIENCE (CAYMAN) LTD., priority 2012, dated 2018).

Molecular target: human PDE1b enzyme (Homo sapiens (Human), UniProt Q01064)
Experiment: PDE1b inhibitory assay (IMAP TR-FRET)
Conditions: not given

Compound	EC50 [nM]
CC(C)CCc1cc2c(s1)n(Cc1ccccc1Cl)c(=O)n1ncnc21 [Example 19, 6-(2-Chlorobenzyl)-8-isopentylthieno[3,2-e][1,2,4]triazolo[1,5-c]pyrimidin-5(6H)-one]	1000 to 10000
CC(C)CCc1cc2c(s1)n(Cc1cccc(Cl)c1)c(=O)n1ncnc21 [Example 20, 6-(3-Chlorobenzyl)-8-isopentylthieno[3,2-e][1,2,4]triazolo[1,5-c]pyrimidin-5(6H)-one]	1000 to 10000
O=c1n(Cc2ccc(Cl)cc2)c2sc(Cc3ccccc3)cc2c2ncnn12 [Example 22, 8-Benzyl-6-(4-chlorobenzyl)thieno[3,2-e][1,2,4]triazolo[1,5-c]pyrimidin-5(6H)-one]	100 to 1000
CC(C)CCc1cc2c(s1)n(Cc1ccc(Cl)cc1)c(=O)n1ncnc21 [Example 23, 6-(4-Chlorobenzyl)-8-isopentylthieno[3,2-e][1,2,4]triazolo[1,5-c]pyrimidin-5(6H)-one]	100 to 1000
O=c1n(Cc2ccccc2)c2sccc2c2ncnn12 [Example 24, 6-Benzylthieno[3,2-e][1,2,4]triazolo[1,5-c]pyrimidin-5(6H)-one]	1000 to 10000
CC(C)CCc1cc2c(s1)n(Cc1ccccc1)c(=O)n1ncnc21 [Example 25, 6-Benzyl-8-isopentylthieno[3,2-e][1,2,4]triazolo[1,5-c]pyrimidin-5(6H)-one]	100 to 1000
Cc1sc2c(c1C)c1ncnn1c(=O)n2Cc1ccc(Cl)cc1 [Example 26, 6-(4-Chlorobenzyl)-8,9-dimethylthieno[3,2-e][1,2,4]triazolo[1,5-c]pyrimidin-5(6H)-one]	100 to 1000
COc1ccc(Cn2c(=O)n3ncnc3c3ccsc32)cc1 [Example 27, 6-(4-Methoxybenzyl)thieno[3,2-e][1,2,4]triazolo[1,5-c]pyrimidin-5(6H)-one]	100 to 1000
COc1ccc(Cn2c(=O)n3ncnc3c3c(C)csc32)cc1 [Example 28, 6-(4-Methoxybenzyl)-9-methylthieno[3,2-e][1,2,4]triazolo[1,5-c]pyrimidin-5(6H)-one]	100 to 1000
COc1ccc(Cn2c(=O)n3ncnc3c3cc(CN(C)C)sc32)cc1 [Example 30, 8-((Dimethylamino)methyl)-6-(4-methoxybenzyl)thieno[3,2-e][1,2,4]triazolo[1,5-c]pyrimidin-5(6H)-one]	100 to 1000
COc1ccc(Cn2c(=O)n3ncnc3c3cc(CN4CCN(C)CC4)sc32)cc1 [Example 32, 6-(4-Methoxybenzyl)-8-((4-methylpiperazin-1-yl)methyl)thieno[3,2-e][1,2,4]triazolo[1,5-c]pyrimidin-5(6H)-one]	100 to 1000
COc1ccc(Cn2c(=O)n3ncnc3c3cc(-c4c(C)noc4C)sc32)cc1 [Example 42, 8-(3,5-Dimethylisoxazol-4-yl)-6-(4-methoxybenzyl)thieno[3,2-e][1,2,4]triazolo[1,5-c]pyrimidin-5(6H)-one]	100 to 1000
COc1ccc(Cn2c(=O)n3ncnc3c3c(C)c(CN4CCCC4)sc32)cc1 [Example 43, 6-(4-Methoxybenzyl)-9-methyl-8-(pyrrolidin-1-ylmethyl)thieno[3,2-e][1,2,4]triazolo[1,5-c]pyrimidin-5(6H)-one]	100 to 1000
COc1ccc(Cn2c(=O)n3ncnc3c3c(C)c(CN4CCNCC4)sc32)cc1 [Example 49, 6-(4-Methoxybenzyl)-9-methyl-8-(piperazin-1-ylmethyl)thieno[3,2-e][1,2,4]triazolo[1,5-c]pyrimidin-5(6H)-one]	100 to 1000

Same assay, conditions: negative log of half-maximal molar inhibitory concentration; 200 nM FAM-cAMP; reported as ranges

Compound	PDE1b (pEC50)
CC(C)CCc1cc2c(s1)n(Cc1ccc(-c3ccccc3)cc1)c(=O)n1ncnc21 [Example 21, 6-([1,1′-Biphenyl]-4-ylmethyl)-8-isopentylthieno[3,2-e][1,2,4]triazolo[1,5-c]pyrimidin-5(6H)-one]	<5
COc1ccc(Cn2c(=O)n3ncnc3c3cc(CN4CCCOCC4)sc32)cc1 [Example 29, 8-((1,4-Oxazepan-4-yl)methyl)-6-(4-methoxybenzyl)thieno[3,2-e][1,2,4]triazolo[1,5-c]pyrimidin-5(6H)-one]	>7
COc1ccc(Cn2c(=O)n3ncnc3c3cc(CN4CCOCC4)sc32)cc1 [Example 31, 6-(4-Methoxybenzyl)-8-(morpholinomethyl)thieno[3,2-e][1,2,4]triazolo[1,5-c]pyrimidin-5(6H)-one]	>7
COc1ccc(Cn2c(=O)n3ncnc3c3cc(CN4C[C@@H](C)O[C@@H](C)C4)sc32)cc1 [Example 33, 8-(((2S,6R)-2,6-Dimethylmorpholino)methyl)-6-(4-methoxybenzyl)thieno[3,2-e][1,2,4]triazolo[1,5-c]pyrimidin-5(6H)-one]	>7
CCN1CCN(Cc2cc3c(s2)n(Cc2ccc(OC)cc2)c(=O)n2ncnc32)CC1=O [Example 34, 8-((4-Ethyl-3-oxopiperazin-1-yl)methyl)-6-(4-methoxybenzyl)thieno[3,2-e][1,2,4]triazolo[1,5-c]pyrimidin-5(6H)-one]	>7
COc1ccc(Cn2c(=O)n3ncnc3c3cc(CN4CCN(S(C)(=O)=O)CC4)sc32)cc1 [Example 35, 6-(4-Methoxybenzyl)-8-((4-(methylsulfonyl)piperazin-1-yl)methyl)thieno[3,2-e][1,2,4]triazolo[1,5-c]pyrimidin-5(6H)-one]	>7
COc1ccc(Cn2c(=O)n3ncnc3c3cc(CN4CCOC(C)(C)C4)sc32)cc1 [Example 36]	>7
COc1ccc(Cn2c(=O)n3ncnc3c3cc(CN4CC5CC4CO5)sc32)cc1 (stereo not drawn) [Example 37, 8-(2-Oxa-5-azabicyclo[2.2.1]heptan-5-ylmethyl)-6-(4-methoxybenzyl)thieno[3,2-e][1,2,4]triazolo[1,5-c]pyrimidin-5(6H)-one]	>7
COc1ccc(Cn2c(=O)n3ncnc3c3cc(CN4CC5(CCOCC5)C4)sc32)cc1 [Example 38, 8-(7-Oxa-2-azaspiro[3.5]nonan-2-ylmethyl)-6-(4-methoxybenzyl)thieno[3,2-e][1,2,4]triazolo[1,5-c]pyrimidin-5(6H)-one]	>7
COc1ccc(Cn2c(=O)n3ncnc3c3cc(CN4CCC5(CC4)COC5)sc32)cc1 [Example 39, 8-(2-Oxa-7-azaspiro[3.5]nonan-7-ylmethyl)-6-(4-methoxybenzyl)thieno[3,2-e][1,2,4]triazolo[1,5-c]pyrimidin-5(6H)-one]	>7
COc1ccc(Cn2c(=O)n3ncnc3c3cc(CN4CCN5C(=O)OCC5C4)sc32)cc1 (stereo not drawn) [Example 40, 7-((6-(4-Methoxybenzyl)-5-oxo-5,6-dihydrothieno[3,2-e][1,2,4]triazolo[1,5-c]pyrimidin-8-yl)methyl)tetrahydro-1H-oxazolo[3,4-a]pyrazin-3(5H)-one]	>7
COc1ccc(Cn2c(=O)n3ncnc3c3cc(-c4cc(C(F)(F)F)nn4C)sc32)cc1 [Example 41, 6-(4-Methoxybenzyl)-8-(1-methyl-3-(trifluoromethyl)-1H-pyrazol-5-yl)thieno[3,2-e][1,2,4]triazolo[1,5-c]pyrimidin-5(6H)-one]	>7
COc1ccc(Cn2c(=O)n3ncnc3c3c(C)c(CN4CCOCC4)sc32)cc1 [Example 44, 6-(4-Methoxybenzyl)-9-methyl-8-(morpholinomethyl)thieno[3,2-e][1,2,4]triazolo[1,5-c]pyrimidin-5(6H)-one]	>7
COc1ccc(Cn2c(=O)n3ncnc3c3c(C)c(CN(C)C)sc32)cc1 [Example 45, 8-((Dimethylamino)methyl)-6-(4-methoxybenzyl)-9-methylthieno[3,2-e][1,2,4]triazolo[1,5-c]pyrimidin-5(6H)-one]	>7
COc1ccc(Cn2c(=O)n3ncnc3c3c(C)c(CN(C)C4CC4)sc32)cc1 [Example 46, 8-((Cyclopropyl(methyl)amino)methyl)-6-(4-methoxybenzyl)-9-methylthieno[3,2-e][1,2,4]triazolo[1,5-c]pyrimidin-5(6H)-one]	>7
COc1ccc(Cn2c(=O)n3ncnc3c3c(C)c(CN4CCC(O)CC4)sc32)cc1 [Example 47, 8-((4-Hydroxypiperidin-1-yl)methyl)-6-(4-methoxybenzyl)-9-methylthieno[3,2-e][1,2,4]triazolo[1,5-c]pyrimidin-5(6H)-one]	>7
COc1ccc(Cn2c(=O)n3ncnc3c3c(C)c(CN(CCO)Cc4ccccc4)sc32)cc1 [Example 48, 8-((Benzyl(2-hydroxyethyl)amino)methyl)-6-(4-methoxybenzyl)-9-methylthieno[3,2-e][1,2,4]triazolo[1,5-c]pyrimidin-5(6H)-one]	>7
COc1ccc(Cn2c(=O)n3ncnc3c3c(C)c(CNCC4(C)COC4)sc32)cc1 [Example 50, 6-(4-Methoxybenzyl)-9-methyl-8-((((3-methyloxetan-3-yl)methyl)amino)methyl)thieno[3,2-e][1,2,4]triazolo[1,5-c]pyrimidin-5(6H)-one]	>7
COc1ccc(Cn2c(=O)n3ncnc3c3c(C)c(CN4CCN(C(C)=O)CC4)sc32)cc1 [Example 51, 8-((4-Acetylpiperazin-1-yl)methyl)-6-(4-methoxybenzyl)-9-methylthieno[3,2-e][1,2,4]triazolo[1,5-c]pyrimidin-5(6H)-one]	>7
COc1ccc(Cn2c(=O)n3ncnc3c3c(C)c(CNCc4cccnc4)sc32)cc1 [Example 52, 6-(4-Methoxybenzyl)-9-methyl-8-(((pyridin-3-ylmethyl)amino)methyl)thieno[3,2-e][1,2,4]triazolo[1,5-c]pyrimidin-5(6H)-one]	>7
COc1ccc(Cn2c(=O)n3ncnc3c3c(C)c(CN4CCNC(=O)C4)sc32)cc1 [Example 53, 6-(4-Methoxybenzyl)-9-methyl-8-((3-oxopiperazin-1-yl)methyl)thieno[3,2-e][1,2,4]triazolo[1,5-c]pyrimidin-5(6H)-one]	>7
COc1ccc(Cn2c(=O)n3ncnc3c3c(C)c(CN(C)CC4CCCO4)sc32)cc1 (stereo not drawn) [Example 54, 6-(4-Methoxybenzyl)-9-methyl-8-((methyl((tetrahydrofuran-2-yl)methyl)amino)methyl)thieno[3,2-e][1,2,4]triazolo[1,5-c]pyrimidin-5(6H)-one]	>7
